Structures are written as SMILES.

By IC50 is commonly meant the concentration that inhibits the measured activity by half. High values mean a need for much substance, low ones inhibition by little substance.

The target in assay [1] is T1, human (His)6DGAT1 (Homo sapiens, UniProt O75907).
T1 construct: made in house; host or cells: Sf9 insect cells (membrane preparation)
T1 sequence (O75907 1-488): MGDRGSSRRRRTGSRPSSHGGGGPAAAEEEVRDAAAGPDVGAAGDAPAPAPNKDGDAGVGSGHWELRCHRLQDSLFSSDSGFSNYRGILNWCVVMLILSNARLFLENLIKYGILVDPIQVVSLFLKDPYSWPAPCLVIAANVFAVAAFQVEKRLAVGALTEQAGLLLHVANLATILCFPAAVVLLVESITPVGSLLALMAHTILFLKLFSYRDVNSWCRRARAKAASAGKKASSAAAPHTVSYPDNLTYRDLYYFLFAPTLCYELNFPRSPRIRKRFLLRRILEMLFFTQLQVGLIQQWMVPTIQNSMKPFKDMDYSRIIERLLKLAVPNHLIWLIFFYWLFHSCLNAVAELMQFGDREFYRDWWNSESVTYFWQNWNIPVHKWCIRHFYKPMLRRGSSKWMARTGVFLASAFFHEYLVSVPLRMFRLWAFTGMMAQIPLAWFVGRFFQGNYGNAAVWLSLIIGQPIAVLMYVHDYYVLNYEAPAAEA
Description: DGAT1 Inhibition Assay. The settings on record: membrane preparation from Sf9 cells overexpressing human (His)6DGAT1; LC/MS/MS readout. Type of assay: biochemical. On the procedure:
The enzyme preparation used in this assay is a membrane preparation from Sf9 cells overexpressing human (His)6DGAT1. During all steps samples were chilled to 4° C. Sf9 cells expressing human (His)6DGAT1 were thawed at room temperature and re-suspended at a 10:1 ratio (mL buffer/g of cells) in 50 mM HEPES, 1× Complete Protease Inhibitor, pH 7.5. The re-suspended pellet was homogenized for 1 min using a Brinkman PT 10/35 homogenizer with a 20 mm generator. Cells were lysed using Avestin Emulsiflex (chilled to 4° C.) at 10000-15000 psi. Lysate was centrifuged at 100,000×g for 1 h at 4° C. Supernatant was removed and pellets were re-suspended in 50 mM HEPES, 1× Complete Protease Inhibitor, pH 7.5 at ⅙ the volume of supernatant. Re-suspended pellets were pooled and homogenized with 10 strokes of a Glas-Col motor driven teflon pestle on setting 70. The protein concentration of the membrane preparation was quantified using BCA protein assay with 1% SDS. The membrane preparation was aliquoted, frozen on dry ice, and stored at −80° C.
For 50 mL, 25 mL of 0.2 M HEPES stock buffer, 0.5 mL of 1 M MgCl2 ([…]), and 24.5 mL of milli-Q H2O are added to the 55 mL Wheaton Potter-Elvehjem homogenizer. Enzyme preparation (0.1 mL) is added to buffer and the mixture is homogenized with 5 strokes on ice using the Glas-Col variable speed homogenizer system on setting 70.
For 50 mL, 0.5 mL 10 mM diolein is added to 9.5 mL of EtOH in a 50 mL Falcon screw cap conical centrifuge tube. Five mL of 10 mM sodium acetate pH 4.5 is added followed by 0.5 mL of 10 mM oleoyl-CoA. Finally, the remaining 4.5 mL of 10 mM sodium acetate pH 4.5 is added followed by 30 mL of milli-Q H20. The solution should be gently agitated by hand to induce mixing. The final concentrations of EtOH and sodium acetate are 20% and 2 mM, respectively.
Dry compounds are dissolved in the appropriate volume of DMSO to a final concentration of 10 mM. […] All dilutions are performed in DMSO in a Greiner 384-well microplate. • 1. 2 μL of compound in DMSO is added to the appropriate wells. […] 25 μL of enzyme mix is added to all wells and plate(s) are incubated for 10 min at RT. • 3. […] Plate(s) are vortexed using Troemner multi-tube vortexer (setting 7 for 10 sec). • 4. 25 μL of substrate mix is added to all wells. Plate(s) are vortexed using Troemner multi-tube vortexer (setting 7 for 10 sec). Plate(s) are incubated for 30 min at RT. • 5. 10 μL of 20% acetic acid quench is added to all wells. Plate(s) are vortexed using Troemner multi-tube vortexer (setting 7 for 10 sec). • 6. 50 μL of 1-butanol w/ glyceryl tripalmitoleate internal standard is added to all wells. • 7. Plate(s) are sealed with super pierce strong plate sealer using the thermo-sealer. • 8. Plate(s) are vortexed using Troemner multi-tube vortexer (setting 10 for 5 min). • 9. Plate(s) are centrifuged at 162×g (1000 rpm for GH-3.8 rotor) for 5 min using Beckman GS-6R tabletop centrifuge.
Where indicated, tripalmitolein was used as an internal standard to control for instrument variation.
Column: Thermo Betabasic 4, 2.1×20 mm
Solvent: 10 mM Ammonium Formate, 0.1% Formic Acid, 2% water, 98% Methanol
Isocratic run 0.5 ml per minute
Data is converted to % inhibition prior to curve fitting using the following equation: […]

The target of assay [2] is T2, DGAT1 in C2C12 cells (Mus musculus, UniProt Q9Z2A7).
T2 construct: endogenous in cells; host or cells: C2C12 mouse skeletal muscle cells
T2 sequence (Q9Z2A7 1-498): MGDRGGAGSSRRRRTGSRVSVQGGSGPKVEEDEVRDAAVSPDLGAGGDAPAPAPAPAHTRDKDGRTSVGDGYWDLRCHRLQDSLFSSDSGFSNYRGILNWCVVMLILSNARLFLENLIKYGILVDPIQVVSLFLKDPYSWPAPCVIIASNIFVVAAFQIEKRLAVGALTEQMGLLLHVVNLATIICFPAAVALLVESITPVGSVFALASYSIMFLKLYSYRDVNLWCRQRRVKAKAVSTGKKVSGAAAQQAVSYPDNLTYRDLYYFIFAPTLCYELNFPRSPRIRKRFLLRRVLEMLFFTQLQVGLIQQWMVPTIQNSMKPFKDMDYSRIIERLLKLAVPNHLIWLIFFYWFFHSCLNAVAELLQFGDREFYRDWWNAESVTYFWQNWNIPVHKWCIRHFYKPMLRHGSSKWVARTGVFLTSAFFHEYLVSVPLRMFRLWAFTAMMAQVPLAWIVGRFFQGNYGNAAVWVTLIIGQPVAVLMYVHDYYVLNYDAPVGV
Description: Cellular assay to measure activity of DGAT1 inhibitors in mammalian cells (C2C12). Type of assay: cell-based. The settings on record: C2C12 mouse skeletal muscle cells, 250 μM oleate, 2 h, LC/MS readout. As to the method:
C2C12 cells are an immortal mouse skeletal muscle cell line showing an 8-fold enrichment form DGAT1 versus DGAT2. C2C12 cells were routinely cultured in 150 cm2 flasks with DMEM (25 mM glucose) containing 10% FBS, 4 m M L-glutamine, 100 U/ml penicillin and 100 μg/ml streptomycin (30 ml per flask), at 37° C., 5% CO2 and 95% humidity. All studies were performed on cells at passage 10 or less.
C2C12 cells were seeded in 96-well plates in DMEM containing […] glucose and 10% FBS, 18 h (at 37° C.) prior to assay (all wells of the plate are used). […] Compounds were added at 1:3 dilution, 11 points and DMSO control, the starting concentration was usually 40 μM. Each point was dosed in quadruplicate allowing 2 compounds to be dosed per plate. The medium was removed at the end of the incubation and 200 μl/well of 1-butanol added. The 1-butanol contained an internal standard, tripalmitolein (2 μM). The plates were sealed with an adhesive plate sealer and left at room temperature for at least 30 min, then spun down at 209×g for 5 min.
Butanolic extracts were transferred to 384-well LC-MS plates (80 μl/well) and the plate heatsealed with a foil plate sealer. The 384-well plates containing sample were spun down at 209×g for 5 min prior to loading on the LC-MS.
Where indicated, tripalmitolein was used as an internal standard to control for instrument variation. HPLC conditions as above.

As to `O=C(O)CC12CCC(c3ccc(-c4ccc(Nc5nnc(C6CCC6)o5)cc4)cc3)(CC1)OC2` [Example 19, {1-[4′-(5-cyclobutyl-[1,3,4]oxadiazol-2-ylamino)-biphenyl-4-yl]-2-oxa-bicyclo[2.2.2]oct-4-yl}-acetic acid], the IC50 in assay [1] was found to be 260 nM; in assay [2] it was 6 nM.
The corresponding values for `CC(C)(C)c1nnc(Nc2ccc(-c3ccc(C45CCC(CC(=O)O)(CC4)CO5)cc3)cc2)o1` [Example 20, 2-(1-(4′-((5-(tert-butyl)-1,3,4-oxadiazol-2-yl)amino)-[1,1′-biphenyl]-4-yl)-2-oxabicyclo[2.2.2]octan-4-yl)acetic acid] are 120 nM and 16 nM.
With `O=C(O)CC12CCC(c3ccc(-c4ccc(Nc5nnc(C6CCC6)o5)cn4)cc3)(CC1)OC2` [Example 21, (1-{4-[5-(5-cyclobutyl-[1,3,4]oxadiazol-2-ylamino)-pyridin-2-yl]-phenyl}-2-oxa-bicyclo[2.2.2]oct-4-yl)-acetic acid], the IC50 in assay [1] came out at 360 nM; in assay [2] it was 944 nM.
Take `CC(C)(C)c1nnc(Nc2ccc(-c3ccc(C45CCC(CC(=O)O)(CC4)O5)cc3)cc2)o1` [Example 22, 2-(4-(4′-((5-(tert-butyl)-1,3,4-oxadiazol-2-yl)amino)-[1,1′-biphenyl]-4-yl)-7-oxabicyclo[2.2.1]heptan-1-yl)acetic acid]: the IC50 turned out to be 1700 nM in assay [1] and 296 nM in assay [2].
Take `CC(C)(C)c1nnc(Nc2ccc(-c3ccc(C45CCC(CCC(=O)O)(CC4)O5)cc3)cc2)o1` [Example 23, 3-(4-(4′-((5-(tert-butyl)-1,3,4-oxadiazol-2-yl)amino)-[1,1′-biphenyl]-4-yl)-7-oxabicyclo[2.2.1]heptan-1-yl)propanoic acid]: the 50% inhibitory concentration (IC50) in assay [1] was 84 nM; in assay [2] it was 267 nM.

Source of the values: patent publication US8993619B2, “Cyclic bridgehead ether DGAT1 inhibitors” (Novartis AG, priority 2012, dated 2015).
